Experimental data taken from patent publication US20250084097A1, “MACROCYCLIC AMIDE COMPOUNDS AND APPLICATION THEREOF” (Medshine Discovery Inc., priority 2021, published 2025).
pIC50: −log10 of the molar value. Where a name gives a salt, the structure may show the parent alone. Read-outs that look alike come from different tables or passages of the source.

What was measured:
[1] = target: Ba/F3-FL-EGFR (L858R/T790M/C797S) (Homo sapiens, UniProt P00533, T790M/C797S/L858R, cells depend on it); assay: Cell proliferation inhibition, CellTiter-Glo; assay type: cell-based; settings: 72 hours, read-out: Cell half-maximal inhibition concentration IC50 Ba/F3-FL-EGFR (L858R/T790M/C797S)
Description: (§1) AdenosineTri-Phosphate (ATP) is an energy carrier shared by various life activities in nature, and is the smallest unit of energy storage and transfer. The CellTiter-Glo™ living cell assay kit uses luciferase as a detector, and luciferase requires the participation of ATP in the process of luminescence. CellTiter-Glo™ reagent is added to a cell culture medium, and the luminescence value is measured. The light signal is directly proportional to the amount of ATP in the system, and ATP is positively correlated with the number of living cells. Therefore, cell proliferation can be detected by detecting ATP content with the CellTiter-Glo kit. In this assay, the cell lines were Ba/F3-FL-EGFR (L858R/T790M/C797S), Ba/F3-FL-EGFR (WT), Ba/F3-FL-EGFR (L858R), Ba/F3-FL-EGFR (del19-S752-I759), Ba/F3-FL-EGFR (del19-E746-A750/T790M/C797S), Ba/F3-FL-EGFR (L858R/T790M), Ba/F3-FL-EGFR (del19-E746-A750/T790M), Ba/F3-TEL-EGFR (L858R/C797S), Ba/F3-FL-EGFR (del19-E746-A750/C797S) stably transfected cell lines.
(§2) The cell lines were cultured in an incubator at 37° C. and 5% CO2. The cells were periodically passaged, and cells in logarithmic growth phase were taken for plating.
(§3) a) DMSO was used to prepare a 10 mM solution of the compound to be tested, and then the compound to be tested was diluted to 0.3 or 1 mM with DMSO.
(§4) b) Preparation of 1000× compound storage plate (tube): DMSO was used to dilute by 3-fold gradient from the highest concentration to the lowest concentration, with a total of 9 concentrations.
(§5) c) Preparation of 20× compound working solution: 49 μL of cell culture medium was added to a flat-bottomed 96-well transparent drug plate, and 1 μL of compound was pipetted from the 1000× compound storage plate to the cell culture medium of the 96-well transparent drug plate. 1 μL of DMSO was added to the vehicle control. After adding compound or DMSO, the well content was mixed to uniform by aspiration and expelling with pipette.
(§6) a) Cells were stained with trypan blue and viable cells were counted. The cell viability rate was required to be above 90%.
(§7) b) 95 μL of cell suspension (2000 cells/well) was added to each well of the compound detection cell plate, and culture medium without cells (containing 0.1% DMSO) was added to the Min control well.
(§8) c) Dosing in the compound detection cell plate: 5 μL of 20× compound working solution was added to the cell culture plate. 5 μL of DMSO-cell culture mixture was added to the Max control. The final concentration of DMSO was 0.1%.
(§9) d) The culture plate was incubated in an incubator at 37° C., 5% CO2 for 72 hours.
(§10) Cell proliferation inhibition rate (Inhibition Rate) data were processed using the following formula:
Inhibition Rate (Inh %)=100−(RLUDrug−RLUMin)/(RLUMax−RLUMin)*100%.
The inhibition rates corresponding to different concentrations of compounds were calculated, and then GraphPad Prism software was used to draw the inhibition rate curve and the IC50 value was calculated.

EGFR (L858R/T790M/C797S) = target: T1, EGFR (L858R/T790M/C797S) (Homo sapiens, UniProt P00533, C797S/L858R/T790M); assay: Kinase inhibitory activity, 33P-ATP filtration-binding (Reaction Biology Corp.); assay type: biochemical; settings: read-out: Kinase half-maximal inhibition concentration IC50 EGFR(L858R/T790M/C797S)
T1 construct: Reaction Biology Corp. (assay performed there)
Description: Compound assay for kinase inhibitory activity against EGFR (L858R/T790M/C797S), EGFR (del19-E746-A750/T790M/C797S), and EGFR (WT) was done at Reaction Biology Corp. In reaction buffer (20 mM Hepes (pH 7.5), 10 mM magnesium chloride (MgCl2), 1 mM ethylenebis(oxyethylenenitrilo)tetraacetic acid (EGTA), 0.02% polyethylene glycol monododecyl ether (Brij35), 0.02 mg/ml BSA, 0.1 mM sodium vanadate (Na3VO4), 2 mM dithiothreitol (DTT), 1% DMSO), a certain concentration of substances, coenzyme factors, kinases and test compounds (10 doses, 3-fold serial dilutions, 2% DMSO final concentration) were added in sequence, and mixed well. The mixture was incubated at room temperature for 20 minutes. A certain concentration of ^33P-ATP was added to the reaction mixture to initiate reaction, followed by incubation at room temperature for 120 minutes. Finally, the radioactivity of the reactants was detected by filtration-binding method. The final kinase activity was expressed as the ratio of the remaining kinase activity of the test sample to the kinase activity of the DMSO control group. The dose-response relationship curve was fitted and IC50 was calculated using GraphPad software.

[2] = system: PC-9 (EGFR del19/T790M/C797S); settings: J. Med. Chem. 2019, 62, 22, 10272-10293; cited from earlier work
Ba/F3-FL-EGFR (L858R) = Ba/F3-FL-EGFR (L858R) (Homo sapiens, UniProt P00533, L858R, cells depend on it); assay: Cell proliferation inhibition, CellTiter-Glo; assay type: cell-based; settings: 72 hours, read-out: Cell half-maximal inhibition concentration IC50 Ba/F3-FL-EGFR (L858R)
Description: as §1, §2, §3, §4, §5, §6, §7, §8, §9
(§11) The following steps were performed according to the instruction of Promega CellTiter-Glo luminescence cell viability detection kit (Promega-G7573). • a) The CellTiter-Glo buffer was thawed and allowed to stand to reach room temperature; • b) CellTiter-Glo substrate was allowed to stand to reach room temperature; • c) CellTiter-Glo buffer was added to CellTiter-Glo substrate in a bottle to dissolve the substrate to formulate CellTiter-Glo working solution; • d) The working solution was vortexed slowly for fully dissolution; • e) The cell culture plates were taken out and allowed to stand for 10 minutes to equilibrate to room temperature; • f) 50 μL (equal to half the volume of cell culture solution in each well) of Cell Titer-Glo working solution was added into each well. • g) The culture plates were shaken on an orbital shaker for 2 minutes to induce cell lysis; • h) The culture plates were left at room temperature for 10 minutes to stabilize the luminescence signal; • i) The luminous signal was detected on the PerkinElmer EnVision®2105 plate reader.
(§12) By PerkinElmer EnVision®2105 reading, the corresponding […] value RLU for each well was yielded.
as §10
(§13) Inhibition Rate (Inh %)=100−(RLUDrug−RLUMin)/(RLUMax−RLUMin)*100%. […]

Ba/F3-FL-EGFR (WT) = Ba/F3-FL-EGFR (WT) (Homo sapiens, UniProt P00533); assay: Cell proliferation inhibition, CellTiter-Glo; assay type: cell-based; settings: 72 hours, read-out: Cell half-maximal inhibition concentration IC50 Ba/F3-FL-EGFR (WT)
Description: as §1, §2, §3, §4, §5, §6, §7, §8, §9, §11, §12, §10, §13

[3] = target: Ba/F3-FL-EGFR (del19-E746-A750/T790M/C797S) (Homo sapiens, UniProt P00533, DEL746-750/T790M/C797S, cells depend on it); assay: Cell proliferation inhibition, CellTiter-Glo; assay type: cell-based; settings: 72 hours, read-out: Cell half-maximal inhibition concentration IC50 Ba/F3-FL-EGFR (del19-E746-A750/T790M/C797S)
Description: as §1, §2, §3, §4, §5, §6, §7, §8, §9, §11, §12, §10, §13

[4] = target: Ba/F3-FL-EGFR (del19-S752-I759) (Homo sapiens, UniProt P00533, DEL752-759, cells depend on it); assay: Cell proliferation inhibition, CellTiter-Glo; assay type: cell-based; settings: 72 hours, read-out: Cell half-maximal inhibition concentration IC50 Ba/F3-FL-EGFR (del19-S752-I759)
Description: as §1, §2, §3, §4, §5, §6, §7, §8, §9, §11, §12, §10, §13

Chain of Ba/F3-FL-EGFR (L858R/T790M/C797S) (P00533 whole entry T790M/C797S/L858R): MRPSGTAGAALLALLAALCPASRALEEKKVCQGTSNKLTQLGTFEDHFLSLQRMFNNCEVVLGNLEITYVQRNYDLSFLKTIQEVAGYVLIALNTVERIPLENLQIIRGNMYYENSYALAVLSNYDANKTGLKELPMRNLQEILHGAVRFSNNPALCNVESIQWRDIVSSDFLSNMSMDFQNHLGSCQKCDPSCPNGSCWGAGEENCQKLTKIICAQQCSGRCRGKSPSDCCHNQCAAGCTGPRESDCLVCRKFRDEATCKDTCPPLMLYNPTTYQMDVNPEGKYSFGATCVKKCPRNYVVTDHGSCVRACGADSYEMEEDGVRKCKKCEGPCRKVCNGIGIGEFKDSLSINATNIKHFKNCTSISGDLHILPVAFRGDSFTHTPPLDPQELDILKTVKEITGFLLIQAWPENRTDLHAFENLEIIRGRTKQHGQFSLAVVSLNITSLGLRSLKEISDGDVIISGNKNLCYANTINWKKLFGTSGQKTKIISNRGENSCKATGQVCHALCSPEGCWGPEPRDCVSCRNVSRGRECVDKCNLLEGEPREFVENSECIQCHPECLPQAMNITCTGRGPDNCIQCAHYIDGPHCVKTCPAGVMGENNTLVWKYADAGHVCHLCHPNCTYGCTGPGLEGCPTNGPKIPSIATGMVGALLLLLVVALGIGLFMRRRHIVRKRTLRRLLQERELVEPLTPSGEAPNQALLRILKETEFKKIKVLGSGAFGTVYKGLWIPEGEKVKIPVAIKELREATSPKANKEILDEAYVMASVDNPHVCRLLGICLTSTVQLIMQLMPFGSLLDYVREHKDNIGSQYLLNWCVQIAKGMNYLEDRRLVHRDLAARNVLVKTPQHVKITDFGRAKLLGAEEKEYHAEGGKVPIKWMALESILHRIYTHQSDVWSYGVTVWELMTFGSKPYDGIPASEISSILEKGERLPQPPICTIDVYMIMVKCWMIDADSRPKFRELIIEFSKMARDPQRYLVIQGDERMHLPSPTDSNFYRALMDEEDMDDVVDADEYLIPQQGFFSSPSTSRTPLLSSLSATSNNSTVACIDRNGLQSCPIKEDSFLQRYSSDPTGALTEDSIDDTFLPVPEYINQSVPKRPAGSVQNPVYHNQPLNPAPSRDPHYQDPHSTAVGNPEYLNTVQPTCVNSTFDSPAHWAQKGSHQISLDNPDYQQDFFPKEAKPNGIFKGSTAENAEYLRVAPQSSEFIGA
T1 sequence (P00533 25-1210 T790M/C797S/L858R): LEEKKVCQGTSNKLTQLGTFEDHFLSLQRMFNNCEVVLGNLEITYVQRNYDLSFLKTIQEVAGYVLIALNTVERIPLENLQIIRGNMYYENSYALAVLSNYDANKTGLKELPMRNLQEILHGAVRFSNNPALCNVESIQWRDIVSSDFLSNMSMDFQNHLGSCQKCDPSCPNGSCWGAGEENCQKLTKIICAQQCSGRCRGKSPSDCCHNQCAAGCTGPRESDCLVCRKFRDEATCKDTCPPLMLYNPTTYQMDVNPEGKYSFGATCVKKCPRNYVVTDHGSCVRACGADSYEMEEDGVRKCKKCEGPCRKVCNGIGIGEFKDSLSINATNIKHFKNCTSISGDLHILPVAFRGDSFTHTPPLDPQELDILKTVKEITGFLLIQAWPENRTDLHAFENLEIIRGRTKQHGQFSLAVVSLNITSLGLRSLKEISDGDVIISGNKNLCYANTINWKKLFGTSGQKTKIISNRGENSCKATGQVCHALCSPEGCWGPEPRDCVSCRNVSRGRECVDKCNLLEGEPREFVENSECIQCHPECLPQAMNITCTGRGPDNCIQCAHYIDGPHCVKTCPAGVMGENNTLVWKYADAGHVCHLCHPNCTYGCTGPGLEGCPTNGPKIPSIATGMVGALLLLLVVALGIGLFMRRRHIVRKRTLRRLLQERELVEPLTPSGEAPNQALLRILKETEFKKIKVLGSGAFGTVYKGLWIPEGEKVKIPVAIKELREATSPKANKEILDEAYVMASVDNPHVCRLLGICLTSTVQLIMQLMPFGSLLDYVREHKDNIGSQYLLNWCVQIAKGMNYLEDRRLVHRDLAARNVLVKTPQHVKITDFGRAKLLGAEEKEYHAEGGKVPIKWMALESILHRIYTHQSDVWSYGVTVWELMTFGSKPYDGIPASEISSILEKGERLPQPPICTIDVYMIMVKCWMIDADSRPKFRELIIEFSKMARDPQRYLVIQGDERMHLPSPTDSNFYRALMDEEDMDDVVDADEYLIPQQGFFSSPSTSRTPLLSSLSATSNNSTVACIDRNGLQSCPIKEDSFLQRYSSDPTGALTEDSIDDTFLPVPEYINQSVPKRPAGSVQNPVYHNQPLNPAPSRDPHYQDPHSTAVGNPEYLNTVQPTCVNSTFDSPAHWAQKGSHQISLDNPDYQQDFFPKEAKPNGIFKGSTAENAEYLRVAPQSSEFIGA
Chain of Ba/F3-FL-EGFR (del19-E746-A750/T790M/C797S) (P00533 with tags, fused parts or gaps DEL746-750/T790M/C797S): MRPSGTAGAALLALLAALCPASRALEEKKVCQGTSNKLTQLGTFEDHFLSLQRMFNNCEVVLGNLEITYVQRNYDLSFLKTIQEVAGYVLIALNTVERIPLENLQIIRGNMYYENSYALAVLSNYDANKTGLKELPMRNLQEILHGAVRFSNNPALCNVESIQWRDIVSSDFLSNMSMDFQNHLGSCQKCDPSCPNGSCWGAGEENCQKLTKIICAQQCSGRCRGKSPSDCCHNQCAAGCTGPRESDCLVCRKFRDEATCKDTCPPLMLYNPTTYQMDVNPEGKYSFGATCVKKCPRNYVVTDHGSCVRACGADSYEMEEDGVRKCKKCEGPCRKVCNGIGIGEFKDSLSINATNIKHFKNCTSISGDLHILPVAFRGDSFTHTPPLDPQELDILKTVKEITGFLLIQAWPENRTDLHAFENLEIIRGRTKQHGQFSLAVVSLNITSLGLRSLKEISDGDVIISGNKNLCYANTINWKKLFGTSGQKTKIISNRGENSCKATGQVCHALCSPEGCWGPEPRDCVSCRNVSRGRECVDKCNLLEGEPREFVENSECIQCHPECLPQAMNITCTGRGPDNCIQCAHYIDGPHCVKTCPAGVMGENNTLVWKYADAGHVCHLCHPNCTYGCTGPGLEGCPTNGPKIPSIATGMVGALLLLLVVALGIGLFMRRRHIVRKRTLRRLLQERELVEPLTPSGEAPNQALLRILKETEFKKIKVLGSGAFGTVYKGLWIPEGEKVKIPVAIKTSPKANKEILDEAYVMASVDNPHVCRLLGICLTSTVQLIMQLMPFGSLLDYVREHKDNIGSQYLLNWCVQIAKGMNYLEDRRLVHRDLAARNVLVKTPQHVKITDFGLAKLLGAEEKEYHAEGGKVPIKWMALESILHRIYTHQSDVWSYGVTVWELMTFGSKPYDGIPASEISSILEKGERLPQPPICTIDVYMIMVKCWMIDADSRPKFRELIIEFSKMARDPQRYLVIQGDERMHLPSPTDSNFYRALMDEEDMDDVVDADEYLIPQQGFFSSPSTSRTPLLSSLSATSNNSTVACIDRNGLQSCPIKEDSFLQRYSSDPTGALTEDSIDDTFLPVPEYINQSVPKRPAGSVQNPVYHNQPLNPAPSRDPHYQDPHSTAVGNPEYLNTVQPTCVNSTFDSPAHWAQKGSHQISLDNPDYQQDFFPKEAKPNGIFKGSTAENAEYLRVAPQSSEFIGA
Chain of Ba/F3-FL-EGFR (del19-S752-I759) (P00533 with tags, fused parts or gaps DEL752-759): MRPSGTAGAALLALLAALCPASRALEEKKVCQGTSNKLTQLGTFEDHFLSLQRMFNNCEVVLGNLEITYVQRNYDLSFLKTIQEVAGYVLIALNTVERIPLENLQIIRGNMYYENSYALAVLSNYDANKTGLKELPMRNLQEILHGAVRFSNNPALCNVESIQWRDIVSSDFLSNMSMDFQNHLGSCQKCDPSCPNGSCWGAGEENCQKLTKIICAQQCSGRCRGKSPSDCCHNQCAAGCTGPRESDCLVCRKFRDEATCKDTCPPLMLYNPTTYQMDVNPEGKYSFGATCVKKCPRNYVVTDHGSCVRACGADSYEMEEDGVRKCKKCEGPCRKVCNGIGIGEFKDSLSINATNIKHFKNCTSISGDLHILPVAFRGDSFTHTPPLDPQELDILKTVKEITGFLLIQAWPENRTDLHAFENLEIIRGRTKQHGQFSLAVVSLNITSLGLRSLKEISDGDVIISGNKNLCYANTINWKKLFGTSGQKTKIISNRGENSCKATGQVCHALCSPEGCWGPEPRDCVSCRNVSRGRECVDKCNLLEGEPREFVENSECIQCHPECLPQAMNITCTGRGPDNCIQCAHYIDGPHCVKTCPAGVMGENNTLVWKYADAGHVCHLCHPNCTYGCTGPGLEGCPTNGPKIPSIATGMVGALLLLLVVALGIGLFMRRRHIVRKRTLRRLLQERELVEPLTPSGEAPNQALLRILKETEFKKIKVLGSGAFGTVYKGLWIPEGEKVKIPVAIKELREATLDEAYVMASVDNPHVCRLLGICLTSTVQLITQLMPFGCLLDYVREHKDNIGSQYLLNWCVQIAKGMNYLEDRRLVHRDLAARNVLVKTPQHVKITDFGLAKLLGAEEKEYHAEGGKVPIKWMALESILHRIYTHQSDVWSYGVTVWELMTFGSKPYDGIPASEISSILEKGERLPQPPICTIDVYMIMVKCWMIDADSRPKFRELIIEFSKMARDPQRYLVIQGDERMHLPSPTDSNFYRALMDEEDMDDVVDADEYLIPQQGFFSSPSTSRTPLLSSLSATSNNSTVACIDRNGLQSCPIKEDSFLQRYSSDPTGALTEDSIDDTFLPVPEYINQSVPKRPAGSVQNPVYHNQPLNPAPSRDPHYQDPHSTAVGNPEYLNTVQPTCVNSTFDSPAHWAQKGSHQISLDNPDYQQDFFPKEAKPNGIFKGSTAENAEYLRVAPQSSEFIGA

In the case of `Cc1cc2cc(n1)-c1cnn(C)c1OCCC[C@@H](C)CN1/C(=N/C2=O)Nc2ccc(N=S3(=O)CCCCC3)cc21` [WX-011], the GI50 [1] was 4.4 nM.

Molecule `CCP(=O)(CC)c1ccc2c(c1)N1C[C@H](C)CCCOc3c(cnn3C)-c3cc(cc(C)n3)C(=O)/N=C/1N2` [WX-004 (trifluoroacetate)] has a pIC50 (EGFR (L858R/T790M/C797S); ATP 100 μM) of 8.76.

With `Cc1cc2cc(n1)-c1cnn(C)c1OCCC[C@@H](C)CN1/C(=N/C2=O)Nc2ccc(N=S(C)(C)=O)cc21` [WX-006 (trifluoroacetate)] the pIC50 (EGFR (L858R/T790M/C797S); ATP 100 μM) was 9.08 and the GI50 [1] was 2.3 nM.

Work on `Cc1cc2cc(n1)-c1cnn(C)c1OCCC[C@@H](C)CN1/C(=N/C2=O)Nc2ccc(N=S3(=O)CC4(COC4)C3)cc21` [WX-025] yielded a GI50 [1] of 5.7 nM.

In the case of `Cc1cc2cc(n1)-c1cnn(C)c1OCCC[C@@H](C)CN1/C(=N/C2=O)Nc2ccc(N=S3(=O)CCN(C)CC3)cc21` [WX-015], the GI50 [1] was 10.6 nM.

`Cc1cc2cc(n1)-c1cnn(C)c1OCCC[C@@H](C)CN1/C(=N/C2=O)Nc2ccc(N=S3(=O)CCN(C4CCN(C)CC4)CC3)cc21` [WX-022] gave a GI50 [1] of 12.7 nM.

In the case of `CCS(=O)(CC)=Nc1ccc2c(c1)N1C[C@H](C)CCCOc3c(cnn3C)-c3cc(cc(C)n3)C(=O)/N=C/1N2` [WX-012 (hydrochloride)], the GI50 [1] was 7.3 nM.

`Cc1cc2cc(n1)-c1cnn(C)c1OCCC[C@@H](C)CN1/C(=N/C2=O)Nc2ccc(N=S3(=O)CCC4(CCN(C)CC4)CC3)cc21` [WX-023] gave a GI50 [1] of 2.7 nM.

`Cc1cc2cc(n1)-c1cnn(C)c1OCCC[C@@H](C)CN1/C(=N/C2=O)Nc2ccc(N=S3(=O)CCN(C4COC4)CC3)cc21` [WX-030] showed a GI50 [1] of 13 nM.

`Cc1cc2cc(n1)-c1cnn(C)c1OCCC[C@@H](C)CN1/C(=N/C2=O)Nc2ccc(N=S3(=O)CCC(N4CCN(C)CC4)CC3)cc21` (some centres unmarked) [WX-026] gave a GI50 [1] of 11.6 nM.

With `Cc1cc2cc(n1)-c1cnn(C)c1OCCC[C@@H](C)CN1/C(=N/C2=O)Nc2ccc(N=S3(=O)CC4CN(C)CC4C3)cc21` (some centres unmarked) [WX-024] the GI50 [1] was 1.4 nM.

For `Cc1cc2cc(n1)-c1cnn(C)c1OCCC[C@@H](C)Cn1c(nc3ccc(CN4CCN(C)CC4)cc31)NC2=O` [BI-4020], the Anti-tumor efficacy [2] is listed as “good anti-tumor efficacy”.

For `Cc1cc2cc(n1)-c1cnn(C)c1OCCC[C@@H](C)CN1/C(=N/C2=O)Nc2ccc(N=S3(=O)CCNCC3)cc21` [WX-014], the GI50 [1] was 14.3 nM, the GI50 (Ba/F3-FL-EGFR (L858R)) was 53.9 nM and the GI50 (Ba/F3-FL-EGFR (WT)) was 421 nM. The GI50 [3] was 2.9 nM and the GI50 [4] was 38.1 nM.

`Cc1cc2cc(n1)-c1cnn(C)c1OCCC[C@@H](C)CN1/C(=N/C2=O)Nc2ccc(N=S3(=O)CCC4(CC3)COC4)cc21` [WX-029] showed a GI50 [1] of 5.5 nM.

Work on `Cc1cc2cc(n1)-c1cnn(C)c1OCCC[C@@H](C)CN1/C(=N/C2=O)Nc2ccc(N=S3(=O)CCC4(CCOCC4)CC3)cc21` [WX-028] yielded a GI50 [1] of 3.3 nM.

Work on `Cc1cc2cc(n1)-c1cnn(C)c1OCCC[C@@H](C)CN1/C(=N/C2=O)Nc2ccc(P(C)(C)=O)cc21` [WX-001 (trifluoroacetate)] yielded a pIC50 (EGFR (L858R/T790M/C797S); ATP 10 μM) of 9.80 and a pIC50 (EGFR (L858R/T790M/C797S); ATP 100 μM) of 8.93.

With `Cc1cc2cc(n1)-c1cnn(C)c1OCCC[C@@H](C)CN1/C(=N/C2=O)Nc2ccc(P(=O)(C(C)C)C(C)C)cc21` [WX-005 (trifluoroacetate)] the pIC50 (EGFR (L858R/T790M/C797S); ATP 100 μM) was 8.79 and the GI50 [1] was 7.2 nM.

`Cc1cc2cc(n1)-c1cnn(C)c1OCCC[C@@H](C)CN1/C(=N/C2=O)Nc2ccc(N=S3(=O)CCC4(CC3)CN(C)C4)cc21` [WX-031] gave a GI50 [1] of 2.1 nM.

With `CCS(=O)(=O)c1ccc2c(c1)N1C[C@H](C)CCCOc3c(cnn3C)-c3cc(cc(C)n3)C(=O)/N=C/1N2` [WX-002 (formate)] the pIC50 (EGFR (L858R/T790M/C797S); ATP 10 μM) was 9.33.
